In paper PMC4063187 (Journal of the American Chemical Society, 2014):
Read-outs that look alike come from different tables or passages of the source. One block for each molecule: values may come before it.

How the values were obtained:
[1] = molecular target: T1, ecDHFR (wild-type, l-DHFR) (Escherichia coli, UniProt P0ABQ4); assay: stopped-flow tryptophan fluorescence quenching, koff/kon; type: binding
T1 sequence (P0ABQ4 1-159): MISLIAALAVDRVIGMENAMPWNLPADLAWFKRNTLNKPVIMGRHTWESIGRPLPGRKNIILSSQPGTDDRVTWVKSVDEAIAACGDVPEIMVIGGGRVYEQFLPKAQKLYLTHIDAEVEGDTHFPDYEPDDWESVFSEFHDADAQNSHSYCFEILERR

[2] = molecular target: T1, ecDHFR (wild-type, l-DHFR); assay: steady-state absorbance at […] nm; type: biochemical; conditions: read-out: 25 °C, pH 7 / l-DHFR, MTEN buffer pH 7, 25 °C
[3] = molecular target: T1, ecDHFR (wild-type, l-DHFR); assay: stopped-flow fluorescence; type: binding

- Kd [1]: 3220 ± 90 nM
Structure (SMILES): Nc1nc2ncc(CNc3ccc(C(=O)N[C@@H](CCC(=O)O)C(=O)O)cc3)nc2c(=O)[nH]1 [FA]

- Km ([2]; 100 μM NADPH): 0.53 ± 0.04 µM
Structure (SMILES): Nc1nc2c(c(=O)[nH]1)N=C(CNc1ccc(C(=O)N[C@@H](CCC(=O)O)C(=O)O)cc1)CN2 [DHF]

- Kd [3]: 180 ± 90 nM
- Km ([2]; 100 μM DHF): 7.2 ± 0.8 µM
Structure (SMILES): NC(=O)C1=CN([C@@H]2O[C@H](COP(=O)(O)OP(=O)(O)OC[C@H]3O[C@@H](n4cnc5c(N)ncnc54)[C@H](OP(=O)(O)O)[C@@H]3O)[C@@H](O)[C@H]2O)C=CC1 [NADPH]
